Measurements reported in US20050233942A1, “Oxygenated dibenzo-alpha-pyrone chromoproteins” (priority 2004, published 2005).
Values after ≈ are worked out from the molar mass of the structure shown.

Key:
[1] = test system: Fe-ADP-ascorbate induced lipid peroxidation (LPO) in rat brain; test: Inhibition of Fe-ADP-ascorbate induced lipid peroxidation (LPO) in rat brain homogenate; format: biochemical, Albino rats (Sprague Dawley strain); settings: 37° C., 30 minutes
Procedure: Inhibition of Fe-ADP-ascorbate induced lipid peroxidation (LPO) in rat brain by DBP and DCPs
Albino rats (Sprague Dawley strain) were sacrificed by cervical dislocation and decapitation. Brains were dissected out and 10% w/v homogenate was prepared in 0.15 M KCl. The brain homogenate was centrifuged at 1500 rpm for 10 minutes and the supernatant was used for the study. The incubation mixture contained in a final volume of 1 ml., brain homogenate (500 μl), distilled water (100 μl) or test compounds dissolved in solvents at different concentrations (10 to 100 μg/ml of the final volume). Peroxidation was initiated by adding FeCl3 (100 μM), ADP (1 mM) and ascorbate (100 μM) to give the final concentration stated. After incubating at 37° C. for 30 minutes, the reaction was stopped by adding acetic acid buffer (1.5 ml, pH 3.5) and thiobarbituric acid solution (1.5 ml, pH 7.4) to 1 ml of LPO mixture. The reaction mixture was heated at 85° C. for 30 minutes, cooled, centrifuged (2000 rpm for 10 minutes) and the absorbance of the supernatant was measured at 532 nm. IC50 values were calculated in the usual way by plotting the concentration of the test compounds versus percent inhibition of LPO.

[2] = test system: chronic stress (CS) induced gastric ulceration; test: Chronic stress (CS) induced gastric ulceration in albino rats; format: in vivo, CF strain albino rats; settings: 14 days
Procedure: A comparative study of shilajit bioactive constituents from EPA, DHA, DBPs and DCPs, was carried out to determine their adaptogenic potency against chronic stress (CS) in albino rats. It is now increasingly becoming evident that CS of a mild but unpredictable nature which the animal is unable to cope with (inescapable stress), is clinically more relevant than acute stress even when the latter is severe in nature. It is believed that chronic, unpredictable, and inescapable stress resembles the situation faced by an individual that ultimately results in chronic stress-induced physiological perturbation and disease. Animals The investigation was carried out on CF strain albino rats, of either sex (140-180 g), housed in colony cages at an ambient temperature of 25±2° C., with a 12 h. light/12 h. dark cycle. […] The procedure of Armario et al (1993) was followed. Briefly, rats were randomly assigned to control or stress groups. Those assigned to the stress groups were subjected to 1 h foot shock, through a grid floor, every day for 14 days. The duration of each shock (2 mA) and the intervals between the shocks were randomly programmed between 3-5 sec. and 10-110 sec., respectively, to make the stress unpredictable. The shock chamber had high walls which made escape from shock impossible. EPA (Aldrich, Milw.), DHA (Sigma), DBPs and DCPs were separately suspended/dissolved in 0.3% carboxymethylcellulose(CMC) in distilled water and administered orally (p.o.), for 14 days, starting on day 1, 60 min prior to electroshock. Control animals received only the vehicle in either unstressed or the stressed rats for the same period in a volume of 2.5 ml/kg, p.o. Estimations were conducted on day 14, one hour after the last stress procedure and two hours after the last test compound or vehicle was administered. Gastric ulcerations (Bhattacharya et al., 1987). On day 14, rats were killed by decapitation the stomach was split open along the greater curvature and the numbers of discrete ulcers were noted. […] Thereafter, the pooled ulcer score was calculated according to the method of Bhattacharya et al. (1987).

[3] = test system: adrenal gland ascorbic acid and corticosterone concentrations and plasma corticosterone level; test: CS induced alteration of adrenal gland ascorbic acid and corticosterone and plasma corticosterone (adrenocorticoid activity); format: in vivo, CF strain albino rats; settings: 5 mg/kg p.o. + CS
Procedure: Animals The investigation was carried out on CF strain albino rats, of either sex (140-180 g), housed in colony cages at an ambient temperature of 25±2° C., with a 12 h. light/12 h. dark cycle. Experiments were conducted between 0900 and 1400 hrs. • EPA, Eicosapentaenoic acid • DHA, Docosahexaenoic acid • DBPs, 1:1 mixture of 3-hydroxy- and 3,8-dihydroxydibenzo-alpha-pyrone • DCPs, DBP-chromoproteins
The procedure of Armario et al (1993) was followed. Briefly, rats were randomly assigned to control or stress groups. Those assigned to the stress groups were subjected to 1 h foot shock, through a grid floor, every day for 14 days. The duration of each shock (2 mA) and the intervals between the shocks were randomly programmed between 3-5 sec. and 10-110 sec., respectively, to make the stress unpredictable. The shock chamber had high walls which made escape from shock impossible.
EPA (Aldrich, Milw.), DHA (Sigma), DBPs and DCPs were separately suspended/dissolved in 0.3% carboxymethylcellulose(CMC) in distilled water and administered orally (p.o.), for 14 days, starting on day 1, 60 min prior to electroshock. […]
Adrenal gland ascorbic acid (Zenker and Bernstein, 1958) and corticosterone concentrations (Selye, 1936), and plasma corticosterone levels (Selye, 1936) were determined to substantiate the validity and intensity of the stress procedure adopted.

O=c1oc2cc(O)ccc2c2ccc(O)cc12 [3,8-Dihydroxydibenzo-alpha-pyrone]
IC50 (LPO) [1]: 30 µg/mL (≈ 131 µM)

O=C1O[C@H]([C@@H](O)CO)C(O)=C1O [Ascorbic acid]
IC50 (LPO) [1]: 70 µg/mL (≈ 397 µM)

CC/C=C\C/C=C\C/C=C\C/C=C\C/C=C\C/C=C\CCC(=O)O [DHA, Docosahexaenoic acid]
Ulcer incidence % ([2]; 5 mg/kg p.o.): 70%
Ulcer incidence % ([2]; 10 mg/kg p.o.): 60%

CC(=O)Oc1c(C)c(C)c2c(c1C)CCC(C)(CCC[C@H](C)CCC[C@H](C)CCCC(C)C)O2 (stereo partly drawn) [Vitamin E acetate]
IC50 (LPO) [1]: 56 µg/mL

CC/C=C\C/C=C\C/C=C\C/C=C\C/C=C\CCCC(=O)O [EPA, Eicosapentaenoic acid]
Adrenal corticosterone [3]: 2.3 ± 0.8 μg/100 mg
Plasma corticosterone [3]: 22.1 ± 2.9 µg/dL
Ulcer incidence % ([2]; 5 mg/kg p.o.): 70%
Ulcer incidence % ([2]; 10 mg/kg p.o.): 60%
